Assays:
CD34+ cells [1] = experiment: NK cell differentiation of compound cultured cells (flow cytometry); format: cell-based, human; details: PNK-007 culture
From the text: (§1) UCB CD34+ cells were cultivated in presence of cytokines including thrombopoietin, SCF, Flt3 ligand, IL-7, IL-15 and IL-2 for 35 days to produce three-stage NK cells, as described in Example 1. Multi-color flow cytometry was used to determine the phenotypic characteristics of three-stage NK cells.
(§2) For biological testing, the compounds were provided to culture to evaluate their effects on NK cell expansion and differentiation. Specifically, donors of CD34^+ cells (StemCell Technology) were thawed and expanded in vitro following NK culture protocol. During the first 14 days of the culture, each CRL compounds was dissolved in DMSO and added to the culture at 10 μM concentration. SR1 (at 10 μM) served as a positive control compound, while DMSO alone without any compound served as a negative control. At the end of the culture on Day 35, cell expansion, natural killer (NK) cell differentiation and cytotoxicity of the cells against K562 tumor cell line were characterized. Due to the large number of the compounds, the testing was performed in two experiments, CRL1-11 and CRL 12-22. The same donors were used for each experiment. Positive and negative controls were also included in both experiments.

K562 tumor cells = experiment: Cytotoxicity assay of compound cultured cells against K562; format: cell-based; details: K562, 10:1 effector to target ratio
Protocol: as §2
Cytotoxicity assay was run using compound cultured cells against K562 tumor cells at 10:1 effector to target ratio (FIG. 5) to evaluate cell functions.

CD34+ cells [2] = experiment: NK cell expansion in three-stage NK culture with compound; format: cell-based, human; details: for NK cell expansion compared to SR1: compound and SR1 at 10 μM, Day 35; for support of NK (PNK-007) expansion: compound at 10 μM during the first 14 days, 35-day culture; for expansion, differentiation and cytotoxicity profiles compared to SR1: PNK-007 culture
From the text: as §1, §2

CD34 cells = experiment: CD34 cell expansion at Day 14 of the culture; format: cell-based, human; details: compound at 10 μM
Protocol: as §2

SMILES | CD56+/CD11a+ subpopulation compared to SR1 (CD34+ cells [1]) | killing activities compared to cells cultured with SR1 (K562 tumor cells) | NK cell expansion compared to SR1 (CD34+ cells [2]) | support of NK (PNK-007) expansion (CD34+ cells [2]) | CD34 cell expansion (CD34 cells) | expansion, differentiation and cytotoxicity profiles compared to SR1 (CD34+ cells [2])
Cc1cncc(-c2nc(NCCc3c[nH]c4ccccc34)c3scc(C(C)C)c3n2)c1 [CRL21, N-(2-(1H-indol-3-yl)ethyl)-7-isopropyl-2-(5-methylpyridin-3-yl)thieno[3,2-d]pyrimidin-4-amine] | increased CD56+/CD11a+ subpopulation | increased killing activities of the cells | slightly less expansion compared to SR1 | – | – | –
CCC(C)Nc1nc(NCCc2c[nH]c3ccccc23)c2ccccc2n1 (centres unmarked) [CRL13, N^4-(2-(1H-indol-3-yl)ethyl)-N^2-(sec-butyl)quinazoline-2,4-diamine] | – | – | – | all the compounds except CRL7 and CRL13 supported PNK-007 expansion and differentiation | – | –
Fc1cncc(-c2nc(NCCc3c[nH]c4ccccc34)c3occc3n2)c1 [CRL19, N-(2-(1H-indol-3-yl)ethyl)-2-(5-fluoropyridin-3-yl)furo[3,2-d]pyrimidin-4-amine] | – | – | – | supported cell expansion the best | highest CD34 cell expansion | very similar expansion, differentiation and cytotoxicity profiles as SR1
Cc1cncc(-c2nc(NCCc3c[nH]c4ccccc34)c3occc3n2)c1 [CRL20, N-(2-(1H-indol-3-yl)ethyl)-2-(5-methylpyridin-3-yl)furo[3,2-d]pyrimidin-4-amine] | – | – | – | supported cell expansion the best | highest CD34 cell expansion | very similar expansion, differentiation and cytotoxicity profiles as SR1
CC(C)c1csc2c(NCCc3c[nH]c4ccccc34)nc(-c3cncc(F)c3)nc12 [CRL18, N-(2-(1H-indol-3-yl)ethyl)-2-(5-fluoropyridin-3-yl)-7-isopropylthieno[3,2-d]pyrimidin-4-amine] | increased CD56+/CD11a+ subpopulation | increased killing activities of the cells | slightly less expansion compared to SR1 | – | – | –
CC(C)c1csc2c(NCCc3c[nH]c4ccccc34)nc(-c3cncc(C#N)c3)nc12 [CRL17, 5-(4-((2-(1H-indol-3-yl)ethyl)amino)-7-isopropylthieno[3,2-d]pyrimidin-2-yl)nicotinonitrile] | increased CD56+/CD11a+ subpopulation | increased killing activities of the cells | slightly less expansion compared to SR1 | – | – | –
CCC(C)Nc1cc(-c2cncc(C#N)c2)nc(NCCc2c[nH]c3ccccc23)n1 (centres unmarked) [CRL7, 5-(2-((2-(1H-indol-3-yl)ethyl)amino)-6-(sec-butylamino)pyrimidin-4-yl)nicotinonitrile] | – | – | – | all the compounds except CRL7 and CRL13 supported PNK-007 expansion and differentiation | – | –
N#Cc1cncc(-c2nc(NCCc3c[nH]c4ccccc34)c3occc3n2)c1 [CRL22, 5-(4-((2-(1H-indol-3-yl)ethyl)amino)furo[3,2-d]pyrimidin-2-yl)nicotinonitrile] | – | – | – | supported cell expansion the best | highest CD34 cell expansion | very similar expansion, differentiation and cytotoxicity profiles as SR1
